Entries after “also recorded” stand apart in the source; their conditions may differ.
Columns and labels:
[1] = Interconversion studies of solid forms; format: physicochemical; settings: EQ in acetone:ethanol (1:1) at 25° C., at least 2 days
Procedure: Interconversion Studies. Interconversion experiments were performed by making slurries of a solid form in a saturated solvent. The slurries were agitated for at least 2 days at about 25° C. The saturated solution was removed by filtration and the solid was dried in the air.

[2] = Compression studies of solid forms; settings: 2000 psi for at least one minute
[3] = Stability studies of solid forms; format: physicochemical; settings: for Stability: Analysis by XRPD (solid form after stress) / Stability: Appearance: 40° C./75% RH, 4 weeks
Procedure: Stability Studies. The stabilities of Forms A, B, C and D were studied by exposing the solid samples to the stress condition of 40° C./75% RH for four weeks. Moreover, the stabilities of Forms A, B, C and D in different solvents were studied by equilibration in different solvents at 40° C. for four weeks. The slurries then were filtered and dried in the air. Solid samples obtained from the stability experiments were analyzed by XRPD and DSC.

[4] = Hygroscopicity (DVS moisture sorption/desorption) studies; format: physicochemical; settings: for hygroscopicity / XRPD pattern / solid form after full adsorption/desorption cycle: DVS; for hygroscopicity: 0-95% RH; for XRPD pattern / solid form after full adsorption/desorption cycle: 0-95-0% RH; for moisture sorption mass change of the starting mass: RH increased from about 0% to about 95% RH, about 25° C.
Procedure: Hygroscopicity studies. The hygroscopicity of various solid forms was studied using a Surface Measurement Systems DVS instrument. Typically a sample size of between about 10-50 mg was loaded into the DVS instrument sample pan and the sample was analyzed on a DVS automated sorption analyzer at about 25° C. The relative humidity was increased in increments of about 10% from about 0% to about 95% RH. The relative humidity was then decreased in a similar manner to accomplish a full adsorption/desorption cycle. The mass was recorded at periodic intervals throughout the experiment.

[5] = molecular target: PDE5 from human platelets (Homo sapiens, UniProt O76074); assay: PDE5 enzyme assay; format: biochemical; settings: from Table 1 data
[6] = molecular target: human PDE2 (Homo sapiens, UniProt O00408); assay: PDE2 enzyme assay; format: biochemical; settings: from Table 1 data
[7] = tested on: PDE4 (from U937 cells); assay: PDE4 (U937 cell-derived) enzyme assay; format: biochemical, human; settings: 1 μM cAMP
[8] = tested on: bovine PDE1; assay: PDE1 enzyme assay; format: biochemical
[9] = molecular target: PDE3 from human platelets (Homo sapiens, UniProt Q14432); assay: PDE3 enzyme assay; format: biochemical; settings: from Table 1 data
[10] = EQ in ethanol at 40° C. for 4 weeks
[11] = EQ in heptane at 40° C. for 4 weeks
[12] = EQ in toluene at 40° C. for 4 weeks
[13] = EQ in water at 40° C. for 4 weeks

PDE3 from human platelets, sequence (Q14432 whole entry): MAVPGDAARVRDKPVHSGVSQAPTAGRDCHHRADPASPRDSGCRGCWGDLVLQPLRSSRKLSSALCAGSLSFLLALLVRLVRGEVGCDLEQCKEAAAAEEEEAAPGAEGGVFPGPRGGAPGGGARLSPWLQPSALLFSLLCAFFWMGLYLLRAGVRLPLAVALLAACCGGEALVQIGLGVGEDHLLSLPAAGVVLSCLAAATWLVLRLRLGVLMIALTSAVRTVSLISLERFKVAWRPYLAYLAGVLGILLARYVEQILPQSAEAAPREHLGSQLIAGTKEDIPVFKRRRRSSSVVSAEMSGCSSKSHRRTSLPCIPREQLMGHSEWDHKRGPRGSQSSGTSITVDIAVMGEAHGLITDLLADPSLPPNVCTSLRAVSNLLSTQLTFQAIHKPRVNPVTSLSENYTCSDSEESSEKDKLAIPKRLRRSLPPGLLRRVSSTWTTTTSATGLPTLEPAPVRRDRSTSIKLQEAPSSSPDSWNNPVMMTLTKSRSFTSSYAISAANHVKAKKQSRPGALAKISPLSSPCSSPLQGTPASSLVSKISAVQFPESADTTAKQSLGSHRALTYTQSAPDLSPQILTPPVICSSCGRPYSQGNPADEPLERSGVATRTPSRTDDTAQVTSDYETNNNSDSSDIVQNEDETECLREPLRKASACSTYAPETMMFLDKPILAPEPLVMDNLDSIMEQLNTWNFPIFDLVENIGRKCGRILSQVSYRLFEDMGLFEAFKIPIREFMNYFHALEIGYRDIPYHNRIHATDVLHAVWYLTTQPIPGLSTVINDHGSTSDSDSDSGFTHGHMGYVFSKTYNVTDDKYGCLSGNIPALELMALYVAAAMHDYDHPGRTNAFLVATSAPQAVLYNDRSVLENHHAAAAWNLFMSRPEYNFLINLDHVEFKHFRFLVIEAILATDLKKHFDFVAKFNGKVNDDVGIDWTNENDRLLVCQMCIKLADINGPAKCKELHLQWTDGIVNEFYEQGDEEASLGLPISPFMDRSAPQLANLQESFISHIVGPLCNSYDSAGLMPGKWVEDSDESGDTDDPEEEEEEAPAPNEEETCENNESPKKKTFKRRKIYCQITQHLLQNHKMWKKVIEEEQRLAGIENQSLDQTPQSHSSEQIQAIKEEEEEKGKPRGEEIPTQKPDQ
human PDE2, sequence (O00408 whole entry): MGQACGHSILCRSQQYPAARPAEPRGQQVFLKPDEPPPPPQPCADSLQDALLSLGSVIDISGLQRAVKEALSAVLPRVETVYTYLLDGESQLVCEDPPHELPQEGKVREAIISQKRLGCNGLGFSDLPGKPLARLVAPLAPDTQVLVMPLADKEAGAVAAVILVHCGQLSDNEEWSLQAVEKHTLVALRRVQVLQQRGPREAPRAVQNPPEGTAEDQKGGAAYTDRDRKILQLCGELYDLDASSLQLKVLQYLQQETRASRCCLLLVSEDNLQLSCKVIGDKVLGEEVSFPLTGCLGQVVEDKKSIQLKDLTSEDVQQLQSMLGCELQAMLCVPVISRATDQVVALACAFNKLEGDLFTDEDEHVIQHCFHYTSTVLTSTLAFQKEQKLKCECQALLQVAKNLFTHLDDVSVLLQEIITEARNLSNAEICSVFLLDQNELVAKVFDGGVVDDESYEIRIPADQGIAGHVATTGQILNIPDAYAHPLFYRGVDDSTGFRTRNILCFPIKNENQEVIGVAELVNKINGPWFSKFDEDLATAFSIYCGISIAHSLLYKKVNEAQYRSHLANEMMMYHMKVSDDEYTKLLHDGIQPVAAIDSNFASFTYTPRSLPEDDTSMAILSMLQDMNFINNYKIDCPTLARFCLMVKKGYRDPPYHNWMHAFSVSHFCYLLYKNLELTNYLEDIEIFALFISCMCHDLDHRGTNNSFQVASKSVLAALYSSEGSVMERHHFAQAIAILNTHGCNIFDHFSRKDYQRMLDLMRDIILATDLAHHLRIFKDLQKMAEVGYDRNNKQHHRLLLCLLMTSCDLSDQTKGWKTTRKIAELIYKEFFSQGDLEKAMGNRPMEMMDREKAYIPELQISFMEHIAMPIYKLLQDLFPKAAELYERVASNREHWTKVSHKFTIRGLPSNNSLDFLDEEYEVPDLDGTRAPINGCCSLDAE

Compound | Interconversion: Analysis by XRPD (solid form after equilibration) [1] | physical stability upon compression (XRPD) [2] | Stability: Analysis by XRPD (solid form after stress) [3] | Stability: Appearance [3] | Stability: Analysis by XRPD (solid form after equilibration) [3, 10] | Stability: Analysis by XRPD (solid form after equilibration) [3, 11] | Stability: Analysis by XRPD (solid form after equilibration) [3, 12] | Stability: Analysis by XRPD (solid form after equilibration) [3, 13] | hygroscopicity [4] | XRPD pattern / solid form after full adsorption/desorption cycle [4] | moisture sorption mass change of the starting mass [4] | PDE Specificity Ratio PDE4/PDE5 [5] | PDE Specificity Ratio PDE4/PDE2 [6] | IC50 [7] | PDE1 (% inhib at 10 μM) ([8]; 10 μM) | PDE Specificity Ratio PDE4/PDE1 ([8]; from Table 1 data) | PDE Specificity Ratio PDE4/PDE3 [9]
CCOc1cc(C(CS(C)(=O)=O)N2C(=O)c3cccc(NC(C)=O)c3C2=O)ccc1OC (single isomer, unassigned; (+)) [Form A, (+)-2-[1-(3-ethoxy-4-methoxyphenyl)-2-methylsulfonylethyl]-4-acetylaminoisoindoline-1,3-dione] | Form B | substantially physically stable | stable; also recorded: Form A | White solid | stable; also recorded: Form F | stable; also recorded: Form A | converts to Form C | stable; also recorded: Form A | substantially nonhygroscopic | substantially unchanged; also recorded: none of the forms analyzed underwent substantial solid-state transformation | about 0.4% |  |  |  |  |  | 
CCOc1cc(C(CS(C)(=O)=O)N2C(=O)c3cccc(NC(C)=O)c3C2=O)ccc1OC (single isomer, unassigned; (+)) [Form C, (+)-2-[1-(3-ethoxy-4-methoxyphenyl)-2-methylsulfonylethyl]-4-acetylaminoisoindoline-1,3-dione] | Form C | substantially physically stable | stable; also recorded: Form C | Yellow solid | stable; also recorded: Form C | stable; also recorded: Form C | stable; also recorded: Form C | stable; also recorded: Form C | substantially nonhygroscopic | substantially unchanged; also recorded: none of the forms analyzed underwent substantial solid-state transformation | about 0.5% |  |  |  |  |  | 
CCOc1cc(C(CS(C)(=O)=O)N2C(=O)c3cccc(NC(C)=O)c3C2=O)ccc1OC (single isomer, unassigned; (+)) [Form F, (+)-2-[1-(3-ethoxy-4-methoxyphenyl)-2-methylsulfonylethyl]-4-acetylaminoisoindoline-1,3-dione] | stable; also recorded: Form F |  |  |  |  |  |  |  | substantially nonhygroscopic | substantially unchanged; also recorded: none of the forms analyzed underwent substantial solid-state transformation | about 0.2% |  |  |  |  |  | 
CCOc1cc(C(CS(C)(=O)=O)N2C(=O)c3cccc(NC(C)=O)c3C2=O)ccc1OC (single isomer, unassigned; (+)) [Form G, (+)-2-[1-(3-ethoxy-4-methoxyphenyl)-2-methylsulfonylethyl]-4-acetylaminoisoindoline-1,3-dione] | converts to Form B |  |  |  |  |  |  |  | substantially nonhygroscopic | substantially unchanged; also recorded: none of the forms analyzed underwent substantial solid-state transformation | about 0.4% |  |  |  |  |  | 
CCOc1cc(C(CS(C)(=O)=O)N2C(=O)c3cccc(NC(C)=O)c3C2=O)ccc1OC (single isomer, unassigned; (+)) [Form B, (+)-2-[1-(3-ethoxy-4-methoxyphenyl)-2-methylsulfonylethyl]-4-acetylaminoisoindoline-1,3-dione] |  | substantially physically stable | stable; also recorded: Form B | White solid | stable; also recorded: Form B | stable; also recorded: Form B |  | stable; also recorded: Form B | substantially nonhygroscopic | substantially unchanged; also recorded: none of the forms analyzed underwent substantial solid-state transformation | about 0.6% |  |  |  |  |  | 
CCOc1cc(C(CS(C)(=O)=O)N2C(=O)c3cccc(NC(C)=O)c3C2=O)ccc1OC (single isomer, unassigned; (+)) [Form E, (+)-2-[1-(3-ethoxy-4-methoxyphenyl)-2-methylsulfonylethyl]-4-acetylaminoisoindoline-1,3-dione] | Form B |  |  |  |  |  |  |  | hygroscopic | substantially unchanged; also recorded: none of the forms analyzed underwent substantial solid-state transformation | about 5.1% |  |  |  |  |  | 
CCOc1cc(C(CS(C)(=O)=O)N2C(=O)c3cccc(NC(C)=O)c3C2=O)ccc1OC (racemic) [Racemic Compound, 2-[1-(3-Ethoxy-4-methoxyphenyl)-2-methylsulfonylethyl]-4-acetylaminoisoindoline-1,3-dione] |  |  |  |  |  |  |  |  |  |  |  | >12000 fold | >800 fold | 81.8 nM | 9% | >2700 fold | >670 fold
CCOc1cc(C(CS(C)(=O)=O)N2C(=O)c3cccc(NC(C)=O)c3C2=O)ccc1OC (single isomer, unassigned; (+)) [Form D, (+)-2-[1-(3-ethoxy-4-methoxyphenyl)-2-methylsulfonylethyl]-4-acetylaminoisoindoline-1,3-dione] | Form B | substantially physically stable | stable; also recorded: Form D | White solid | converts to Form B | converts to Form B | converts to Form C | converts to Form B | slightly hygroscopic | substantially unchanged; also recorded: none of the forms analyzed underwent substantial solid-state transformation | about 1.5% |  |  |  |  |  | 

Reference: patent US8629173B2, “Solid forms comprising (+)-2-[1-(3-ethoxy-4-methoxyphenyl)-2-methylsulfonylethyl]-4-acetylaminoisoindoline-1,3-dione, compositions thereof, and uses thereof” (Celgene Corporation, priority 2002, dated 2014)
